Bounds are passed on as bounds.

For orientation: EC50 means the midpoint of the concentration-response curve. As usually defined, the IC50 is the concentration needed to halve the response being measured. Read a high IC50 as a need for much substance.

Assay [1] relates to HIV-IIIb. In words: Antiviral assay in MT-4 cells infected with HIV-IIIb. The format is cell-based. Conditions: MT4, 120 h; MT-4 cells, HIV-IIIb, 5 days; read-out: EC50 Range MT-4. How it is done: See: Wolfe, etal J. Virol.
Antiviral Assays in MT2 and MT4 Cells
For the antiviral assay utilizing MT-2 cells, 50 μl of 2× test concentration of 5-fold serially diluted compound in culture medium with 10% FBS was added to each well of a 96-well plate (9 concentrations) in triplicate. MT-2 cells were infected with HIV-IIIb at a multiplicity of infection (m.o.i) of 0.01 for 3 hours. Fifty microliters of infected cell suspension in culture medium with 10% FBS (˜1.5×10^4 cells) was then added to each well containing 50 μl of diluted compound. The plates were then incubated at 37° C. for 5 days. For the antiviral assay utilizing MT-4 cells, 20 μl of 2× test concentration of 5-fold serially diluted compound in culture medium with 10% FBS was added to each well of a 384-well plate (7 concentrations) in triplicate. MT-4 cells were next mixed with HIV-IIIb at an m.o.i. of 0.1 and 20 μl of virus/cell mixture (˜2000 cells) was immediately added to each well containing 20 μl of diluted compound. The plates were then incubated at 37° C. for 5 days. After 5 days of incubation, 100 μl of CellTiter-Glo™ Reagent (catalog # G7571, Promega Biosciences, Inc., Madison, Wis.) was added to each well containing MT-2 cells and 40 μl to each well containing MT-4 cells. Cell lysis was carried out by incubating at room temperature for 10 min and then chemiluminescence was read.

Assay [2] deals with HIV integrase (Human immunodeficiency virus type 1 group M subtype B, UniProt P04585). The assay can be described thus: biochemical.

For the compound `CN(C)S(=O)(=O)Nc1c2c(c(O)c3ncccc13)C(=O)N(Cc1ccc(F)cc1)C2` [Compound 41, N-(7-(4-fluorobenzyl)-9-hydroxy-8-oxo-7,8-dihydro-6H-pyrrolo[3,4-g]quinolin-5-yl)-N′,N′-dimethylsulfamide], in assay [1], the EC50 was less than 60 nM. Also, the IC50 in assay [2] lay in the range of 60 to 1000 nM.

For the compound `CN(c1c2c(c(O)c3ncccc13)C(=O)N(Cc1ccc(F)cc1)C2)S(=O)(=O)c1ccccn1` [Compound 158, N-(7-(4-fluorobenzyl)-9-hydroxy-8-oxo-7,8-dihydro-6H-pyrrolo[3,4-g]quinolin-5-yl)-N-methylpyridine-2-sulfonamide], the EC50 in assay [1] is less than 60 nM. The compound further yielded an IC50 in assay [2] of 60 to 1000 nM.

In the case of `CN(c1c2c(c(O)c3ncccc13)C(=O)N(Cc1ccccn1)C2)S(C)(=O)=O` [Compound 94, N-(9-hydroxy-8-oxo-7-(pyridin-2-ylmethyl)-7,8-dihydro-6H-pyrrolo[3,4-g]quinolin-5-yl)-N-methylmethanesulfonamide], the EC50 in assay [1] is less than 60 nM. For the same compound, the IC50 in assay [2] was in the range of 60 to 1000 nM.

On to `CN(c1c2c(c(O)c3ncccc13)C(=O)N(Cc1ccc(F)cc1)C2=O)S(C)(=O)=O` [Compound 152, N-(7-(4-fluorobenzyl)-9-hydroxy-6,8-dioxo-7,8-dihydro-6H-pyrrolo[3,4-g]quinolin-5-yl)-N-methylmethanesulfonamide], for which the EC50 in assay [1] was greater than 1000 nM. In assay [2], this compound registered an IC50 of less than 60 nM.

As to `CN(c1c2c(c(O)c3ncccc13)C(=O)N(Cc1c(F)ccc(Cl)c1F)C2)S(C)(=O)=O` [Compound 185, N-(7-(3-chloro-2,6-difluorobenzyl)-9-hydroxy-8-oxo-7,8-dihydro-6H-pyrrolo[3,4-g]quinolin-5-yl)-N-methylmethanesulfonamide], in assay [1], the EC50 is less than 60 nM. In addition, the IC50 in assay [2] was in the range of 60 to 1000 nM.

Turning to `CN(C)CCCS(=O)(=O)N(C)c1c2c(c(O)c3ncccc13)C(=O)N(Cc1ccc(F)cc1)C2` [Compound 44, N-(7-(4-fluorobenzyl)-9-hydroxy-8-oxo-7,8-dihydro-6H-pyrrolo[3,4-g]quinolin-5-yl)-N-methyl-3-(dimethylamino)-propane-1-sulfonamide], in assay [1], the EC50 is less than 60 nM. The same compound displayed an IC50 in assay [2] of less than 60 nM.

Take `O=C1c2c(c(N3CCCNS3(=O)=O)c3cccnc3c2O)CN1Cc1ccc(F)cc1` [Compound 215]: in assay [1], the EC50 is less than 60 nM. Moreover, the IC50 in assay [2] lay within 60 to 1000 nM.

With `CN(c1c2c(c(O)c3ncccc13)C(=O)N(Cc1cc(Cl)ccc1F)C2)S(C)(=O)=O` [Compound 211, N-(7-(5-chloro-2-fluorobenzyl)-9-hydroxy-8-oxo-7,8-dihydro-6H-pyrrolo[3,4-g]quinolin-5-yl)-N-methylmethanesulfonamide], the EC50 in assay [1] is less than 60 nM. Also, the IC50 in assay [2] was 60 to 1000 nM.

As to `CN(c1c2c(c(O)c3ncccc13)C(=O)N(Cc1cccc(Cl)c1F)C2)S(C)(=O)=O` [Compound 177, N-(7-(3-chloro-2-fluorobenzyl)-9-hydroxy-8-oxo-7,8-dihydro-6H-pyrrolo[3,4-g]quinolin-5-yl)-N-methylmethanesulfonamide], the EC50 in assay [1] is less than 60 nM. The same compound gave an IC50 in assay [2] of 60 to 1000 nM.

On to `CN(C)c1cccc2c(S(=O)(=O)N(C)c3c4c(c(O)c5ncccc35)C(=O)N(Cc3ccc(F)cc3)C4)cccc12` [Compound 154, 5-(dimethylamino)-N-(7-(4-fluorobenzyl)-9-hydroxy-8-oxo-7,8-dihydro-6H-pyrrolo[3,4-g]quinolin-5-yl)-N-methylnaphthalene-1-sulfonamide], for which the EC50 in assay [1] was greater than 1000 nM. Also, the IC50 in assay [2] was 60 to 1000 nM.

In the case of `CN(c1c2c(c(O)c3ncccc13)C(=O)N(Cc1ccc(F)cc1)C2)S(=O)(=O)c1cn(C)cn1` [Compound 56, N-(7-(4-fluorobenzyl)-9-hydroxy-8-oxo-7,8-dihydro-6H-pyrrolo[3,4-g]quinolin-5-yl)-N,1-dimethyl-1 H-imidazole-4-sulfonamide], in assay [1], the EC50 is less than 60 nM. This compound also gave an IC50 in assay [2] of less than 60 nM.
